Laboratory results reported in patent US8563511B2, “Treatment of pulmonary hypertension using an agent that inhibits a tissue factor pathway” (University of Rochester, priority 2004, dated 2013).

Experiments:
[1] = system: Pneum/MCT rats (rat model of severe pulmonary arterial hypertension); assay: Treatment of PAH in pneumonectomy + MCT young rat model; format: in vivo; settings: bosentan 100 mg/kg daily
Description: All animal studies were approved by the IACUC at the University of Rochester prior to the initiation of any animal experiments. Male Sprague Dawley rats weighing between 200 and 250 g were shaved and then endotracheally intubated with an 18 G angiocatheter after anesthesia with ketamine and xylazine (70 mg/kg ketamine and 50 mg/kg xylazine delivered intraperitoneal in 0.9% saline). Flunixin was administered 0.1 mg/kg SQ at the beginning of the case to provide 24 hours postoperative analgesia. […] The animal was taken off the ventilator and monitored for spontaneous respirations while suction was applied to the thoracostomy tube. […]
(§1) One week later, animals were given MCT (dissolved 60 mg/ml in DMSO) as a subcutaneous injection (vehicle animals were treated with the same volume of DMSO alone). They were monitored and allowed ordinary chow and water for 28 days (in the group of animals which were utilized to generate FIG. 2, two of the animals initially treated with pneumonectomy and MCT died spontaneously on days 18 and 23, so the remaining four animals were sacrificed at Day 24).
Exercise capacity was monitored 5 and 10 days after MCT treatment and then more frequently as the disease progressed. […]

[2] = system: patients with pulmonary hypertension; settings: cited from earlier work
[3] = system: Male Sprague Dawley rats; assay: Induction of PAH by MCT after sham surgery or pneumonectomy in young rats; format: in vivo, rat; settings: for pulmonary pressure (RVSP, mean PA): FIG. 1
Description: All animal studies were approved by the IACUC at the University of Rochester prior to the initiation of any animal experiments. Male Sprague Dawley rats weighing between 200 and 250 g were shaved and then endotracheally intubated with an 18 G angiocatheter after anesthesia with ketamine and xylazine (70 mg/kg ketamine and 50 mg/kg xylazine delivered intraperitoneal in 0.9% saline). Flunixin was administered 0.1 mg/kg SQ at the beginning of the case to provide 24 hours postoperative analgesia. Animals were ventilated (respiratory rate 70-90, adjusted while monitoring the animal to prevent spontaneous respiratory effort) at 10-12 cc/kg (Harvard Apparatus) and the left chest was prepared with Betadine scrub. The fourth or fifth intercostal space was identified, and an incision was made with care to avoid lung damage while ventilation was briefly interrupted. A rib retractor was used to expose the thoracic cavity, and the lung was lifted gently to expose the hilar structures. Two ligaclips (Ektacon LS200, Johnson & Johnson) were applied proximally before the left lung was cut at the distal hilar structure. A polyethylene tube with holes at the end and cut into the sides was inserted through the sixth intercostal space and laid in the thoracic cavity where the left lung had been. Two absorbable sutures were used to approximate the ribs, and then the muscles and subcutaneous tissue were approximated with an additional layer of sutures. Care was taken to carefully seal the thoracostomy tube with tissue so that the hole would close spontaneously when the thoracostomy tube was removed. Suction was applied to the tubing at the earliest possible time once a seal had been achieved (sometimes before the subcutaneous tissues were closed). Antisedan (Orion) was administered 0.2 mg/kg IM, and the skin was closed with 9 mm Autoclips (Stoelting). The animal was taken off the ventilator and monitored for spontaneous respirations while suction was applied to the thoracostomy tube. The rat was required to make significant respiratory effort and begin to right itself on the table before the endotracheal and thoracostomy tubes were removed. […] A 30 to 40% mortality is routinely encountered in the 24 hour perioperative period. For the sham surgery, an incision was made to the chest wall. With great care, ventilation was stopped, the chest was listed with forceps, and a small incision was made in the fourth or fifth intercostal space. If there was any evidence for lung damage, the case was converted to a pneumonectomy. A smaller polyethylene tube was inserted through the same hole and laid between the lung and the chest wall. The ribs were approximated with one or two sutures as appropriate. The remainder of the procedure was identical. The animal was ventilated for several minutes after the chest was closed but before sedation was reversed to make sure that total time under anesthesia was approximately the same as in pneumonectomy cases.
as §1
Exercise capacity was monitored 5 and 10 days after MCT treatment and then more frequently as the disease progressed. Rats were placed on a treadmill (Columbus Instruments) that stimulates them with a mild electric shock when they fail to run. Each assessment lasted for 16 min: 2 min. @ 10 m/min, 4 min @ 15 m/min, 5 min @ 20 m/min, and 5 min @ 25 m/min. The maximum distance run was 305 m. This procedure has been specifically approved by the local IACUC.
Initially, a grid intensity of 70% maximum and frequency of 2 Hz was used. […]

## COc1ccccc1Oc1c(NS(=O)(=O)c2ccc(C(C)(C)C)cc2)nc(-c2ncccn2)nc1OCCO [bosentan]
[1]
  PA pressure: only a modest elevation in PA pressure

## CC(=O)CC(c1ccccc1)c1c(O)c2ccccc2oc1=O (stereo not shown) [warfarin]
[2]; Kawut et al., patients also on advanced therapies such as prostacyclin
  survival: survival benefit
[2]; Rich et al., prospective observational trial
  mortality at 5 years: decreased mortality

## C[C@H]1C(=O)O[C@@H]2CCN3CC=C(COC(=O)[C@](C)(O)[C@]1(C)O)[C@H]23 [MCT, monocrotaline]
[3]; MCT after pneumonectomy
  (RV + S)/LV: 1.8 ± 0.6
  (RV + S)/Weight: 2.7 ± 0.3
  LV/Weight: 1.6 ± 0.5
  pulmonary pressure (RVSP, mean PA): near systemic elevations in pulmonary pressure
[3]; MCT after sham surgery
  (RV + S)/LV: 1.20 ± 0.3
  (RV + S)/Weight: 1.9 ± 0.4
  LV/Weight: 1.6 ± 0.2
[3]; MCT following sham surgery
  pulmonary pressure (RVSP, mean PA): modest PAH
[3]; Pneum/MCT rats, by day 17 after MCT
  exercise capacity (16 min treadmill protocol): unable to complete the 16 min protocol
[3]; Sham/MCT rats
  exercise capacity (16 min treadmill protocol): consistently completed the exercise protocol
